Data reported in patent US4396607A, “Muramyl peptide derivatives and pharmaceutical compositions” (priority 1978, dated 1983).

Legend:
ovalbumin [1] = test: Liposome forms: adjuvant character in Wistar rats, ovalbumin; format: in vivo; details: ovalbumin 0.5 mg s.c., 200 μg
Experimental: The antigen was ovalbumin injected by the subcutaneous route in male Wistar rats in a volume of 0.5 ml at the dose of 0.5 mg. The adjuvant preparations were injected simultaneously, at the dose indicated. At day 20, the animals received a booster of 0.5 mg of antigen alone by the same route. The serums were drawn and tested under the same conditions as in the mouse with the appropriate antigen.

ovalbumin [2] = test: Liposome forms: adjuvant character in guinea pigs, ovalbumin in aqueous solution; format: in vivo, Hartley male guinea pigs; details: ovalbumin 1 mg in foot pad
Experimental: The antigen was ovalbumin injected in aqueous solution in the foot pad of Hartley male guinea pigs at a volume of 0.1 ml in each rear paw, at the dose of 1 mg per guinea pig. The adjuvant preparations were injected simultaneously at the indicated doses. After three weeks, the animals received by the dermal route, in a volume of 0.1 ml, 0.025 mg of antigen. The diameter of the cutaneous reactions was measured after 48 hours. The animals were bled and the titers measured.

Ovalbumin [3] = test: Adjuvant character in emulsion (delayed hypersensitivity and antibodies); format: in vivo, Hartley guinea pigs; details: guinea pigs, 50 μg in AlF emulsion with 1 mg ovalbumin; for Log2 of the hemagglutinating titer: serum day 21; for HSR (diameter of the delayed hypersensitivity reaction): skin test day 18, read 48 hours later
Experimental: The tests were carried out on batches of 6 male Hartley guinea pigs of 350 g. The administration was done by intradermal injection into the plantar pad of each of the rear paws. Ovalbumin (constituting the antigen) in the amount of 1 mg is prepared in 0.1 ml of an emulsion of saline isotonic solution, in any oily phase constituted either by the Freund imcomplete adjuvant (FIA), or by the complete adjuvant (FCA) formed by the FIA to which is added 0.1 mg of whole Mycobacterium smegmatis cells. The compound according to the invention was administered in the amount of 0.05 mg added in the emulsion containing the FIA.
Eighteen days after this immunization, possible delayed hypersensitivity reactions to the antigen were sought by injecting by the intradermal route 0.01 mg of ovalbumin in the side of the animals, and 48 hours later, the reaction of the point of injection was observed. The diameter in millimeters of the reaction thus caused was measured.
Twenty-one days after the injection, the animals were bled. […]

BSA = test: Liposome forms: adjuvant character in mice, BSA as antigen; format: in vivo; details: 10 μg
Experimental: (§1) Groups of 8 Swiss mice aged two months received, by sub-cutaneous injection (SC), 0.5 mg of antigen constituted by bovine serum albumin (BSA) with 0.1 mg or without the tested substance in an isotonic saline solution. This high dose of antigen, because it is situated at the limit of the paralyzing dose with respect to the immunitary response, results, for this reason, in a weak or zero response to the antigen only in the controls: It constitutes therefore a severe criterien to establish the activity of an adjuvant substance. Thirty days later, the mice received, by the same administrative route, a booster containing 0.1 mg of the same antigen.
(§2) The antibody level was determined, six days after the booster, by passive hemagglutination using sheep's red blood corpuscles treated with formalin and covered with the antigen studied according to the method described by A. A. HIRATA and M. W. BRANDISS (J. Immunol., 100, 641-648, 1968).
The series of tests was carried out on mice under the same conditions as indicated in (3)(a), using BSA as antigen.

Listeria monocytogenes = test: Liposome forms: anti-Listeria activity; format: in vivo; details: mice, 1.10^3 Listeria i.v.
Experimental: The tests were carried out under the conditions of (5), using a dose of Listeria monocytogen, known to cause typically a cellular type infection.
The treatment of the mice and the inoculation were carried out by the intravenous route. The products were injected in the liposome form at the indicated doses. The controls only received isotonic solution.
The dose of Listeria administered was, in all the tests, 1.10^3 cells.
The tests whose results are given below were carried out by varying the interval of time separating the treatment of inoculation from the Listeria monocytogenes (either 1, either 4, or 8 days). The number of surviving mice at the 5th and at the 10th day following inoculation was followed, and the percentage protection determined as for the preceding tests.

Klebsiella = test: Liposome forms: anti-Klebsiella activity (intravenous infection); format: in vivo; details: mice, i.v. treatment at D - 1, 1.5.10^3 Klebsiella i.v.
Experimental: Under the previously described conditions, with the exception of the infection produced by the intravenous injection of 1.5.10^3 Klebsiella, the tests are renewed to determine the anti-infectious action. The administrations in the form of solution and of liposome were prepared.

Klebsiella pneumoniae = test: Anti-infectious activity with respect to Klebsiella; format: in vivo; details: mice, i.v. treatment 24h before 2 × 10^4 bacteria i.m.
Experimental: The survival of groups of inoculated mice under the above conditions and treated by means of the products according to the invention was followed.
The infecting dose was 2.10^4 Klebsiella; it was administered by the intramuscular route.
The administration of the tested product was carried out by the intravenous route in 0.2 ml of apyrogenic physiological solution, the controls receiving the solution alone. It was carried out 24 hours before the inoculation.
The percentage protection indicated is a difference of the percentages of survivors of the treated group with respect to the control group.

[4] = Toxicity (lethal dose 50) by parenteral administration in the adrenalectomised mouse; format: in vivo, mice
Experimental: The toxicity of the products according to the invention was investigated by parenteral administration in mice. It was observed that the toxic doses were of an order of magnitude very much higher than that of the doses at which these products manifest their activity. Thus the lethal dose 50 of the products according to the invention tested was higher than 5 mg/kg of animal in the adrenalectomised mouse, whose sensitivity to endotoxins is well-known.

[5] = Liposome forms: toxicity in the adrenalectomized mouse; format: in vivo; details: groups of six mice, 100 μg
Experimental: Pharmacological tests similar to the preceding ones were reproduced with MDP, MDP-L-Ala-eicosyl-ester and MDP-L-Ala-glyceryl-mycolate comparing the effects of administration in liposome form with those obtained for products in solution and with liposomes without muramyl-peptide.
The liposomes were prepared in the manner described above.
The products, the doses administered and their effect on the mortality of groups of six mice are indicated below.

[6] = test system: bovine serum albumin (BSA); test: Adjuvant character in the aqueous phase (antibody titer by passive hemagglutination); format: in vivo, Swiss mice; details: mice, 0.5 mg BSA with 0.1 mg tested substance SC in isotonic saline, booster day 30, titer at the 36th day
Experimental: as §1, §2
The antibody titer, represented by the maximum serum dilution agglutinating a given amount of sheep corpuscles, reaches a maximum at the 36th day and is established in the following manner: […]

[7] = test system: Limulus amoebocyte lysate; test: Limulus test (endotoxic type activity); details: gel formation after 20 minutes at 37° C.
Experimental: For this purpose, 0.1 ml of the Limulus amoebocyte lysate preparation (marketed by the MALLINCKRODT Company, at St. LOUIS, U.S.A.) was mixed with an equal volume of the tested product at various concentrations in solution in apyrogenic distilled water. The vessels used were also made apyrogenic by dry heating in the oven, at 180° C., for 2 hours.
After incubating the mixture for 20 minutes at 37° C. in tubes, the formation of gel characteristics of the presence of endotoxin was estimated.

[8] = i.v. treatment at D - 1, dose 100 μg
[9] = i.v. treatment at D - 4, dose 100 μg
[10] = i.v. treatment at D - 8, dose 100 μg

Compound | Log2 of the hemagglutinating titer (Ovalbumin [3]) | HSR (diameter of the delayed hypersensitivity reaction) (Ovalbumin [3]) [millimeters] | Log2 of the hemagglutinating titer (BSA) | % of protection (Listeria monocytogenes; [8]) [%] | Number of survivors D + 5 (Listeria monocytogenes; [8]) | Number of survivors D + 10 (Listeria monocytogenes; [8]) | % of protection (Listeria monocytogenes; [9]) [%] | Number of survivors D + 5 (Listeria monocytogenes; [9]) | Number of survivors D + 10 (Listeria monocytogenes; [9]) | % of protection (Listeria monocytogenes; [10]) [%] | Number of survivors D + 5 (Listeria monocytogenes; [10]) | Number of survivors D + 10 (Listeria monocytogenes; [10]) | % of protection (Klebsiella; 1 μg) [%] | Number of survivors at D + 3 (Klebsiella; 1 μg) | Number of survivors at D + 5 (Klebsiella; 1 μg) | Number of survivors at D + 8 (Klebsiella; 1 μg) | % of protection (Klebsiella; 10 μg) [%] | Number of survivors at D + 3 (Klebsiella; 10 μg) | Number of survivors at D + 5 (Klebsiella; 10 μg) | Number of survivors at D + 8 (Klebsiella; 10 μg) | further results
N-acetyl-muramyl-L-alanyl-D-isoglutaminyl-L-alanylglyceryl-mycolate [MDP--L--Ala--glyceryl--mycolate] | 12.77 ± 0.83 | 21± 3 | 2.07 ± 1.13 | 0 | 3 | 2 | 0 | 1 | 0 | 0 | 1 | 0 | 0 | 2 | 2 | 2 | 25 | 9 | 8 | 8 | Log2 of the hemagglutinating titer (ovalbumin [1]): 7.64 ± 1.90; HSR (diameter of the cutaneous reactions) (ovalbumin [2]; dose not given): 0; Log2 of the hemagglutinating titer (ovalbumin [2]; dose not given): 8.64 ± 1.83; % of protection (Klebsiella; 100 μg): 63%; Number of survivors at D + 3 (Klebsiella; 100 μg): 8; Number of survivors at D + 5 (Klebsiella; 100 μg): 7; Number of survivors at D + 8 (Klebsiella; 100 μg): 7; % of protection (Klebsiella pneumoniae; dose per mouse 10): 33%; Number of survivors at day 3 (Klebsiella pneumoniae; dose per mouse 10): 5; Number of survivors at day 5 (Klebsiella pneumoniae; dose per mouse 10): 4; Number of survivors at day 8 (Klebsiella pneumoniae; dose per mouse 10): 4; % of protection (Klebsiella pneumoniae; dose per mouse 100): 79%; Number of survivors at day 3 (Klebsiella pneumoniae; dose per mouse 100): 23; Number of survivors at day 5 (Klebsiella pneumoniae; dose per mouse 100): 23; Number of survivors at day 8 (Klebsiella pneumoniae; dose per mouse 100): 23; lethal dose 50 [4]: higher than 5 mg/kg; Number of dead mice [5]: 0/6; Log2 hemagglutinating titer [6]: 7.47 ± 1.17
CCCCCCCCCCCCCCCCCCCCOC(=O)[C@H](C)NC(=O)CC[C@@H](NC(=O)[C@H](C)NC(=O)[C@@H](C)O[C@H]1[C@H](O)[C@@H](CO)OC(O)[C@@H]1NC(C)=O)C(N)=O (stereo partly drawn) [MDP--L--Ala--eicosyl--ester, eicosyl ester of N-acetyl-muramyl-L-alanyl-D-isoglutamine-L-alanine] | 11.25 ± 1.14 | 6 ± 4 | 3.64 ± 1.15 | 0 | 3 | 0 | 0 | 4 | 4 | 0 | 2 | 2 | 25 | 4 | 4 | 4 | 31 | 13 | 9 | 9 | Log2 of the hemagglutinating titer (ovalbumin [2]; 200 μg): 7.33 ± 1.51; HSR (diameter of the cutaneous reactions; in parentheses number of animals showing the reaction) (ovalbumin [2]; 200 μg, read after 48 hours): 0; Limulus test result (concentration of the tested product) [7]: 10 µg/mL; % of protection (Klebsiella; 100 μg): 63%; Number of survivors at D + 3 (Klebsiella; 100 μg): 14; Number of survivors at D + 5 (Klebsiella; 100 μg): 14; Number of survivors at D + 8 (Klebsiella; 100 μg): 14; % of protection (Klebsiella pneumoniae; dose per mouse 10): 46%; Number of survivors at day 3 (Klebsiella pneumoniae; dose per mouse 10): 18; Number of survivors at day 5 (Klebsiella pneumoniae; dose per mouse 10): 14; Number of survivors at day 8 (Klebsiella pneumoniae; dose per mouse 10): 14; % of protection (Klebsiella pneumoniae; dose per mouse 100): 70%; Number of survivors at day 3 (Klebsiella pneumoniae; dose per mouse 100): 23; Number of survivors at day 5 (Klebsiella pneumoniae; dose per mouse 100): 23; Number of survivors at day 8 (Klebsiella pneumoniae; dose per mouse 100): 20; lethal dose 50 [4]: higher than 5 mg/kg; Number of dead mice [5]: 0/6; Log2 hemagglutinating titer [6]: 7.11 ± 2.03
